From US20040147739A1, “Novel anti-infectives” (priority 2003, published 2004)

Row | melting point | SMILES
1 | 190 to 194.5 °C (dec.) | CC(Br)CCn1c(=O)c(C2=Nc3ccccc3S(=O)(=O)N2)c(O)c2ccccc21 (centres unmarked) [Example 10, 1-(3-Bromobutyl)-3-(1,1-dioxo-1,2-dihydrobenzo[1,2,4]thiadiazin-3-yl)-4-hydroxy-1-1H-quinolin-2-one]
2 | 232 to 235 °C | O=c1c(C2=Nc3ccccc3S(=O)(=O)N2)c(O)c2ccccc2n1CC1CCCCC1 [Example 11, 1-Cyclohexylmethyl-3-(1,1-dioxo-1,2-dihydrobenzo[1,2,4]thiadiazin-3-yl)-4-hydroxy-1H-quinolin-2-one]
3 | 249.1 to 251.1 °C | CC(C)=CCn1c(=O)c(C2=Nc3ccccc3S(=O)(=O)N2)c(O)c2ccccc21 [Example 12, 3-(1,1-Dioxo-1,2-dihydrobenzo[1,2,4]thiadiazin-3-yl)-4-hydroxy-1-(3-methylbut-2-eneyl)-1H-quinolin-2-one]
4 | 248.9 to 250 °C | O=c1c(C2=Nc3ccccc3S(=O)(=O)N2)c(O)c2ccccc2n1CCCC(F)(F)F [Example 18, 3-(1, l-Dioxo-1,2-dihydrobenzo[1,2,4]thiadiazin-3-yl)-4-hydroxy-1-(4,4,4-trifluorobutyl)-1H-quinolin-2-one]
5 | 238.4 to 239.6 °C | O=c1c(C2=Nc3ccccc3S(=O)(=O)N2)c(O)c2ccccc2n1CCCCO [Example 20, 3-(1,1-Dioxo-1,2-dihydrobenzo[1,2,4]thiadiazin-3-yl)-4-hydroxy-1-(4-hydroxybutyl)-1H-quinolin-2-one]
